According to EP0192976A1, “Compounds having antihyperlipemic activity, processes for the preparation thereof and pharmaceutical compositions containing them” (BOEHRINGER BIOCHEMIA ROBIN S.p.A., priority 1985, dated 1986):
Where two headings read alike, the source gives them in different places.

How the values were obtained:
[1] = test system: thrombosis induced by the administration of arachidonic acid, as well as colla- gene and adrenalin; experiment: Mouse antithrombotic assay (di Minno and Silver); type: in vivo; conditions: orally administered at doses from 100 to 250 mg/kg; thrombosis induced by arachidonic acid, and by collagen and adrenalin
From the text: Exper. Therap. 225, 57 (1983).

[2] = test system: Fasting induced lipolysis; experiment: Antilipolytic activity, fasting induced lipolysis (free fatty acids); type: in vivo; conditions: fasted for 24 hours
Description: (§1) The compounds were administered orally. […] The results are expressed as µEq/1 of free fatty acids.
10 Animals per group - Normally feeded for 6 days, then fasted for 24 hours and orally administered with the test compounds.

[3] = test system: Adrenalin induced lypolysis; experiment: Antilipolytic activity, adrenalin induced lipolysis (free fatty acids); type: in vivo; conditions: 1·10^-3 mol/kg oral
Description: as §1
10 Animals per group - Feeded and housed for one weed, then administered orally and stimulated with adrenalin 1 mg/kg i.p., respectively 30 and 60 min. before killing.

ear marginal veins [4] = experiment: Vasodilation of ear marginal veins (flushing side-effect); conditions: Guinea pigs, 1·10^-3 mol/kg
From the text: (§7) Such a side-effect may be experimented on male albino Guinea pigs, weighing 300-400 g, normally feeded and housed in silent room, by observing the vasodilation of ear marginal veins, after administration of the test compounds.

Normolipolysis = experiment: Antilipolytic activity, normolipolysis (free fatty acids); type: in vivo; conditions: for antilipolytic activity: oral, under normal feeding conditions and in lipolysis induced by fasting or adrenalin
Description: as §1
10 Animals per group - Normally feeded for 7 days, then administered with the test compounds.

[5] = test system: fructose induced hypertriglyceridemia; experiment: Fructose induced hypertriglyceridemia; type: in vivo, Male Sprague-Dawley rats; conditions: fructose and Triton induced hypertriglyceridemias (test not given)
Description: (§2) The single compounds were administered orally at single equimolecular gradually increasing doses, in order to comparatively evaluate their hypocholesterolemic and hypotriglyceridemic activities. Normolipidemic, and hypercholesterolemic and hypertriglyceridemic rats, following to administration of diets respectively enriched in cholesterol and cholic acid (Nath diet) or 79.5% fructose, were used.
(§3) Male Sprague-Dawley rats of 180-200 g body weight were used. The compounds under test were administered as 1% tylose suspension, by means of gastric probe, 10 animals per dose in comparison with controls, treated with the sole vehicle.
(§4) In the serum the following values were determined: • a) total cholesterol, by enzymatic method; • b) HDL cholesterol, by enzymatic method, after precipitation of the other lipoproteins by addition of phospho- tungstic acid; • c) triglycerides by enzymatic method, i.e. by means of enzymatic hydrolysis and dosage of the formed glycerol.
(§5) The dosage of the liver triglycerides has been carried out by enzymatic method on the evaporated liver extract with chloroform:methanol 2:1.
(§6) The results were evaluated and expressed as % variation with respect to the control groups.
The hypotriglyceridemyzing activity of the compounds of the invention, as already mentioned, was evaluated in fructose and Triton induced hypertriglyceridemias, in comparison with the following standard: 1,10-bisL2-(hydroxyethyl)thio]decane (3) and its nicotinate (4) and nicoti- noyloxymethylcarbonyloxy ester (5).
All the compounds were administered 'at equimolecular gradual dosages.

ear marginal veins [6] = conditions: guinea pig, in vivo
From the text: as §7

[7] = test system: hypercholesterolemic animals (Nath diet); experiment: Hypocholesterolemic/hypotriglyceridemic activity in hypercholesterolemic rats (Nath diet); type: in vivo, Male Sprague-Dawley rats; conditions: oral
Description: as §2, §3
Four dose levels: 1, 2, 4, 8 10^-3 mol/kg were used for each compound under test. The body growth and liver weight were evaluated.
as §4, §5, §6

[8] = 2 hours after 1·10^-3 mol/kg oral single dose
[9] = 4 hours after 1·10^-3 mol/kg oral single dose
[10] = 8 hours after 1·10^-3 mol/kg oral single dose
[11] = 30', adrenalin 1 mg/kg i.p. 30 min before killing
[12] = 60', adrenalin 1 mg/kg i.p. 60 min before killing
[13] = 2 hours after 1·10^-3 mol/kg oral single dose, normally fed
[14] = 4 hours after 1·10^-3 mol/kg oral single dose, normally fed
[15] = 8 hours after 1·10^-3 mol/kg oral single dose, normally fed
[16] = Basal, normally fed 7 days, group later given 1·10^-3 mol/kg oral single dose
[17] = 4·10^-3 mol/kg, % variation versus controls

Vasodilating effect: Beginning (ear marginal veins [6])	Vasodilating effect: Beginning of disappearance (ear marginal veins [6])	Vasodilating effect: Maximal effect (ear marginal veins [6])	SMILES	protection from thrombosis [1]	free fatty acids [2, 8]	free fatty acids [2, 9]	free fatty acids [2, 10]	FFA [3, 11]	FFA [3, 12]	free fatty acids (Normolipolysis; [13])	free fatty acids (Normolipolysis; [14])	free fatty acids (Normolipolysis; [15])	free fatty acids (Normolipolysis; [16])	other results
			O=C(NC(Cc1ccccc1)C(=O)OCCSCCCCCCCCCCSCCOC(=O)C(Cc1ccccc1)NC(=O)c1cccnc1)c1cccnc1 (centres unmarked) [1,10-bis[2-(nicotinoylphenylalanyl)ethylthio]decane]	protect the mouse from thrombosis										
			CCC(C)C(NC(=O)c1cccnc1)C(=O)OCCSCCCCCCCCCCSCCOC(=O)C(NC(=O)c1cccnc1)C(C)CC (centres unmarked)	protect the mouse from thrombosis										
			CC(NC(=O)c1cccnc1)C(=O)OCCSCCCCCCCCCCSCCOC(=O)C(C)NC(=O)c1cccnc1 (centres unmarked) [Example 7, 1,10-bis[2-(nicotinoyialanylethyl)thio]decane]	protect the mouse from thrombosis										
			O=C(O)c1cccnc1 [Compound 2, nicotinic acid]		180 µEq/1	190 µEq/1	950 µEq/1	340 μEq/l	650 μEq/l	110 µEq/1	160 µEq/1	560 µEq/1	260 µEq/1	Vasodilating effect: Beginning (ear marginal veins [4]): 3'; Vasodilating effect: Beginning of disappearance (ear marginal veins [4]): 20'; Vasodilating effect: Maximal effect (ear marginal veins [4]): 6'; antilipolytic activity (Normolipolysis): proved to have antilipolytic activity
			Cc1cnc(C(=O)NCC(=O)OCCSCCCCCCCCCCSCCOC(=O)CNC(=O)c2cnc(C)cn2)cn1 [1,10-bis[2-(5-methylpyrazinoylglycyl)ethylthio]decane]	protect the mouse from thrombosis										
			O=C(CNC(=O)c1cncc(Br)c1)OCCSCCCCCCCCCCSCCOC(=O)CNC(=O)c1cncc(Br)c1 [Example 5, 1,10-Bis[2-(5-bromn-nicotinoylglicyl)ethyl-thio]decane]	protect the mouse from thrombosis										
			OCCSCCCCCCCCCCSCCO [Compound 3, 1,10-bis[2-(hydroxyethyl)thio]decane]											triglyceride hepatic concentration, increases [5]: 40-50%
10'	48'	25'	O=C(OCCSCCCCCCCCCCSCCOC(=O)c1cccnc1)c1cccnc1 [Compound 4]		250 µEq/1	240 µEq/1	970 µEq/1	295 μEq/l	625 μEq/l	120 µEq/1	155 µEq/1	450 µEq/1	230 µEq/1	triglyceride hepatic concentration, increases [5]: 40-50%; preliminar increase of the total cholesterol ([7]; 2·10^-3 mol/kg, versus controls): 10%; HDL concentration ([7]; all the assayed doses, the decrease lessened with increasing dose): marked decrease; triglyceride hematic concentration ([7]; all the tested doses, tendency to decrease with increasing dose): always higher than that in the control animals; decrease of the total cholesterol versus controls ([7]; doses above 2·10^-3 mol/kg, did not vary increasing the dose): 50%; liver weight ([7]; over the tested doses): gradual increase
==	==	==	O=C(CNC(=O)c1cccnc1)OCCSCCCCCCCCCCSCCOC(=O)CNC(=O)c1cccnc1 [Compound 1]	protect the mouse from thrombosis	480 µEq/1	430 µEq/1	400 µEq/1	450 μEq/l	400 μEq/l	200 µEq/1	225 µEq/1	270 µEq/1	230 µEq/1	triglyceride hepatic concentration, percent variations [5]: -10 to +10%; liver weight ([7]; 4·10^-3 mol/kg): no substantial changes; decrease in hematic triglycerides [7, 17]: 4%; decrease in hepatic triglycerides [7, 17]: 48%; decrease of total plasmatic cholesterol [7, 17]: 37%; increase in HDL cholesterol [7, 17]: 7%
13'	51'	30'	O=C(COC(=O)c1cccnc1)OCCSCCCCCCCCCCSCCOC(=O)COC(=O)c1cccnc1 [Compound 5, 1,10-bis[2-(nicotino-yloxymethylcarbonyloxy)ethylthio]decane]		207 µEq/1	228 µEq/1	744 µEq/1	270 μEq/l	610 μEq/l	120 µEq/1	170 µEq/1	260 µEq/1	240 µEq/1	antilipolytic activity (Normolipolysis): proved to have antilipolytic activity; triglyceride hepatic concentration, percent variations [5]: -10 to +10%; concentration of hepatic triglycerides ([7]; 4·10^-3 mol/kg): increase; decrease in hematic HDL cholesterol [7, 17]: 6%; decrease in hematic triglycerides [7, 17]: 34%; decrease of total plasmatic cholesterol [7, 17]: 30%
